From patent US6770292B2, “Pharmaceutical compositions for oral administration” (Capsules, priority 2000, dated 2004)

Test system: blood calcium
Assay: Blood calcium (calcemia) in rats after administration of calcitonin compositions
Assay type: in vivo, female Wistar rats
Conditions: oral, 72 IU per animal, FIG. 5
Method: The study was carried out on female Wistar rats weighing 150 g, divided into groups of 4 rats. Oral administration was effected using an esophageal tube in a volume of 300 μl, corresponding to […] administered per animal.
A volume of 100 μl of an aqueous solution of calcitonin with a titer of 20 IU/ml, corresponding to a dose of 2 IU of calcitonin per animal, was administered subcutaneously to a positive control group.
A volume of 300 μl of an aqueous solution of calcitonin with a titer of 240 IU/ml, corresponding to 72 IU per animal, was administered orally to a negative control group.
The animals were fasted (water diet) 24 hours before the experiment. Blood samples were taken retro-orbitally under general anesthetic at T0 (before administration), T0+1 h, T0+2 h or T0+3 h, T0+5 h. 50 μl of blood are collected in microcapillary tubes containing heparin.
The blood calcium and pH are measured immediately after sample collection, directly in the microcapillary tube, by means of a CIBA-CORNING model 634 automatic analyzer to give the calcemia.

Substance: calcitonin [non-encapsulated calcitonin solution]
- decrease of calcemia: not observed
